Experimental data as given in patent publication US6596900B2, “Fused bicyclic or tricyclic amino acids” (Pfizer Inc, priority 2001, dated 2003).

Key:
[1] = target: T1, α2δ subunit derived from porcine brain tissue (Sus scrofa, UniProt A0A287BIN3); assay: radioligand binding assay using [3H]gabapentin and the α2δ subunit; details: [3H]gabapentin radioligand binding assay described herein
T1 construct: the α2δ subunit derived from porcine brain tissue; from tissue; host or cells: porcine brain tissue
Description: wherein n is an integer of from 1 to 4, where there are stereocentres, each center may be independently R or S, preferred compounds being those of Formulae I-IV above in which n is an integer of from 2 to 4. The compounds are disclosed as being useful in treating a variety of disorders including epilepsy, faintness attacks, hypokinesia, cranial disorders, neurodegenerative disorders, depression, anxiety, panic, pain, neuropathological disorders, and sleep disorders. Certain of the compounds disclosed in that patent have high activity as measured in a radioligand binding assay using [^3H]gabapentin and the α2δ subunit derived from porcine brain tissue (Gee N. S., Brown J. P., Dissanayake V. U. K., Offord J., Thurlow R., Woodruff G. N., J. Biol. Chem., 1996;271:[…]). Results for some of the compounds are set out in the following table:
The biological activity of the compounds of the invention may be measured in a radioligand binding assay using [^3H]gabapentin and the α2δ subunit derived from porcine brain tissue (Gee N. S., Brown J. P., Dissanayake V. U. K., Offord J., Thurlow R., Woodruff G. N., ADVANCEADVANCE J. Biol. Chem., 1996;271:5879-[…]). Results may be expressed in terms of μM or nM α2δ binding affinity.

[2] = target: T1, α2δ subunit derived from porcine brain tissue; details: [3H]gabapentin radioligand; compounds of WO0128978 (prior application); cited from earlier work

T1 sequence (A0A287BIN3 entry or part of it): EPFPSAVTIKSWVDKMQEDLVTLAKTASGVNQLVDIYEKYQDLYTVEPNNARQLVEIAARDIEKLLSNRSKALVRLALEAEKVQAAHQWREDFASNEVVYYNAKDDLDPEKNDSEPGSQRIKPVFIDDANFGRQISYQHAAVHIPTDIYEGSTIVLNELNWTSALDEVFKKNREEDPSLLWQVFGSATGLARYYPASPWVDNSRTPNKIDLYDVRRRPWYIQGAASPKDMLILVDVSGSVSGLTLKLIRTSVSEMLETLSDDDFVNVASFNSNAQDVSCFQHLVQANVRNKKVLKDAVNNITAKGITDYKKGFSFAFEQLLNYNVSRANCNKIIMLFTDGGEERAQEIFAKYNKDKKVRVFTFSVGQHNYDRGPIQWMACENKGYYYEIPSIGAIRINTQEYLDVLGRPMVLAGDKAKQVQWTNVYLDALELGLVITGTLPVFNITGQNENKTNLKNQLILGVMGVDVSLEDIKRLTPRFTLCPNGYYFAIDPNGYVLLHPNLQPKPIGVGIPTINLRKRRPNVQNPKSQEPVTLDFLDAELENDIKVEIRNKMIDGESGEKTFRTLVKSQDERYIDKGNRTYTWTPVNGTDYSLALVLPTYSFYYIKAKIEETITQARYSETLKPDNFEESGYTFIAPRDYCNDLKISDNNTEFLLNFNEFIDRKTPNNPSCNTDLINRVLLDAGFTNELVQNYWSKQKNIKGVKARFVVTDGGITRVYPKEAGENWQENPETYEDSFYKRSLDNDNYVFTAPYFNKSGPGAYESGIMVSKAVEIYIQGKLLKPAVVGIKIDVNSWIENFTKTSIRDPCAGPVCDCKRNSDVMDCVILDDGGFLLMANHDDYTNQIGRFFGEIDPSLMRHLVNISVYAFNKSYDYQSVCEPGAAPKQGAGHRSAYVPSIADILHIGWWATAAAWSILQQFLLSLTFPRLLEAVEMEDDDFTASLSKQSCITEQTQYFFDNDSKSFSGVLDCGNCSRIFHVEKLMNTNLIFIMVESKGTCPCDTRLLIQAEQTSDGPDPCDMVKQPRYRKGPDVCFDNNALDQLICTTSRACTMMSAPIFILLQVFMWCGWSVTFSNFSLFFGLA

Row | SMILES | binding affinities [1] | melting point | α2δ binding affinity [2]
1 | Cl.NC[C@]1(CC(=O)O)C[C@H]2CCC[C@H]21 [Example 1, [(1R,5R,6S)-6-(Aminomethyl)bicyclo[3.2.0]hept-6-yl]acetic acid hydrochloride] | 46.8 nM | 198 °C | –
2 | Cl.NC[C@]1(CC(=O)O)C[C@H]2CCCC[C@H]21 [Example 4, [(1R,6R,7S)-7-(Aminomethyl)bicyclo[4.2.0]oct-7-yl]acetic acid hydrochloride] | 600 nM | – | –
3 | NC[C@]1(CC(=O)O)C[C@H]2CC[C@H]2C1 [(1α, 3α, 5α)(3-Aminomethyl-bicyclo[3.2.0]hept-3-yl)-acetic acid] | – | – | 0.038 µM
4 | NCC1(CC(=O)O)C[C@H]2CC[C@@H]2C1 (racemic) [(+/−)-(1α, 5β)(3-Aminomethyl-bicyclo[3.2.0]hept-3-yl)-acetic acid] | – | – | 2.86 µM
5 | NC[C@@]1(CC(=O)O)C[C@H]2CC[C@H]2C1 [((1α, 3β, 5α)(3-Aminomethyl-bicyclo[3.2.0]hept-3-yl)-acetic acid] | – | – | 0.332 µM
